Experimental data from patent US8088769B2, “Cyanopyrimidinones” (Boehringer Ingelheim International GmbH, priority 2004, dated 2012).

How the values were obtained:
[1] = molecular target: T1, PDE1C (Homo sapiens, UniProt Q14123); assay: PDE inhibition, recombinant PDE1C (SPA); format: biochemical; details: human isoenzyme
T1 construct: made in house; host or cells: Sf9 (baculovirus, pFASTBAC)
Text: (§1) Recombinant PDE1C (GenBank/EMBL Accession Number: NM_005020, Loughney et al. J. Biol. Chem. 1996 271, 796-806), PDE2A (GenBank/EMBL Accession Number: NM_002599, Rosman et al. Gene 1997 191, 89-95), PDE3B (GenBank/EMBL Accession Number: NM_000922, Miki et al. Genomics 1996, 36, 476-485), PDE4B (GenBank/EMBL Accession Number: NM_002600, Obernolte et al. Gene. 1993, 129, 239-247), PDE5A (GenBank/EMBL Accession Number: NM_001083, Loughney et al. Gene 1998, 216, 139-147), PDE7B (GenBank/EMBL Accession Number: NM_018945, Hetman et al. Proc. Natl. Acad. Sci. U.S.A. 2000, 97, 472-476), PDE8A (GenBank/EMBL Accession Number: AF—056490, Fisher et al. Biochem. Biophys. Res. Commun. 1998, 246, 570-577), PDE9A (Fisher et al., J. Biol. Chem., 1998, 273 (25): 15559-15564), PDE10A (GenBank/EMBL Accession Number: NM_06661, Fujishige et al. J Biol Chem. 1999, 274, 18438-45), PDE11A (GenBank/EMBL Accession Number: NM_016953, Fawcett et al. Proc. Natl. Acad. Sci. 2000, 97, 3702-3707) were expressed in Sf9 cells with the aid of the pFASTBAC baculovirus expression system (GibcoBRL).
(§2) The test substances are dissolved in 100% DMSO and serially diluted to determine their in vitro effect on PDE9A. Typically, serial dilutions from 200 μM to 1.6 μM are prepared (resulting final concentrations in the assay: 4 μM to 0.032 μM). 2 μl portions of the diluted substance solutions are introduced into the wells of microtitre plates (Isoplate; Wallac Inc., Atlanta, Ga.). Then 50 μl of a dilution of the PDE9A preparation described above are added. […] The plates are then measured for 30 s per well in a Microbeta scintillation counter (Wallac Inc., Atlanta, Ga.). IC50 values are determined from the graphical plot of the substance concentration versus the percentage inhibition.
(§3) The in vitro effect of test substances on recombinant PDE3B, PDE4B, PDE7B, PDE8A, PDE10A and PDE11A is determined by the assay protocol described above for PDE9A with the following adaptations: the substrate used is [5′,8-^3H]adenosine 3′,5′-cyclic phosphate (1 μCi/μl; Amersham Pharmacia Biotech., Piscataway, N.J.). […]

[2] = molecular target: T2, PDE11A (Homo sapiens, UniProt Q9HCR9); assay: PDE inhibition, recombinant PDE11A (SPA); format: biochemical; details: human isoenzyme, read-out: IC50 PDE11
T2 construct: made in house; host or cells: Sf9 (baculovirus, pFASTBAC)
Text: as §1, §2, §3

[3] = molecular target: T3, PDE7B (Homo sapiens, UniProt Q9NP56); assay: PDE inhibition, recombinant PDE7B (SPA); format: biochemical; details: human isoenzyme
T3 construct: made in house; host or cells: Sf9 (baculovirus, pFASTBAC)
Text: as §1, §2, §3

[4] = molecular target: PDE4B (Homo sapiens, UniProt Q07343); assay: PDE inhibition, recombinant PDE4B (SPA); format: biochemical; details: human isoenzyme
Text: as §1, §2, §3

[5] = molecular target: T4, PDE3B (Homo sapiens, UniProt Q13370); assay: PDE inhibition, recombinant PDE3B (SPA); format: biochemical; details: human isoenzyme
T4 construct: made in house; host or cells: Sf9 (baculovirus, pFASTBAC)
Text: as §1, §2, §3

[6] = molecular target: T5, PDE2A (Homo sapiens, UniProt O00408); assay: PDE inhibition, recombinant PDE2A (SPA); format: biochemical; details: human isoenzyme
T5 construct: made in house; host or cells: Sf9 (baculovirus, pFASTBAC)
Text: as §1, §2, §3

[7] = molecular target: T6, PDE10A (Homo sapiens, UniProt Q9Y233); assay: PDE inhibition, recombinant PDE10A (SPA); format: biochemical; details: human isoenzyme
T6 construct: made in house; host or cells: Sf9 (baculovirus, pFASTBAC)
Text: as §1, §2, §3

[8] = molecular target: T7, PDE8A (Homo sapiens, UniProt O60658); assay: PDE inhibition, recombinant PDE8A (SPA); format: biochemical; details: human isoenzyme
T7 construct: made in house; host or cells: Sf9 (baculovirus, pFASTBAC)
Text: Recombinant PDE1C (GenBank/EMBL Accession Number: NM_005020, Loughney et al. J. Biol. Chem. 1996 271, 796-806), PDE2A (GenBank/EMBL Accession Number: NM_002599, Rosman et al. Gene 1997 191, 89-95), PDE3B (GenBank/EMBL Accession Number: NM_000922, Miki et al. Genomics 1996, 36, 476-485), PDE4B (GenBank/EMBL Accession Number: NM_002600, Obernolte et al. Gene. 1993, 129, 239-247), PDE5A (GenBank/EMBL Accession Number: NM_001083, Loughney et al. Gene 1998, 216, 139-147), PDE7B (GenBank/EMBL Accession Number: NM_018945, Hetman et al. Proc. Natl. Acad. Sci. U.S.A. 2000, 97, 472-476), PDE8A (GenBank/EMBL Accession Number: AF—056490, Fisher et al. Biochem. Biophys. Res. Commun. […]
The test substances are dissolved in 100% DMSO and serially diluted to determine their in vitro effect on PDE9A. […] The plates are then measured for 30 s per well in a Microbeta scintillation counter (Wallac Inc., Atlanta, Ga.). IC50 values are determined from the graphical plot of the substance concentration versus the percentage inhibition.
as §3

[9] = molecular target: T8, PDE9A (Homo sapiens, UniProt O76083); assay: PDE inhibition, recombinant PDE9A (SPA); format: biochemical; design: made in house; host or cells: Sf9 (baculovirus, pFASTBAC); details: human isoenzyme
Protocol: The dilution of the PDE9A preparation is chosen so that less than 70% of the substrate is converted during the subsequent incubation (typical dilution: 1:10 000; dilution buffer: 50 mM Tris/HCl pH 7.5, 8.3 mM MgCl2, 1.7 mM EDTA, 0.2% BSA). […] The plates are then measured for 30 s per well in a Microbeta scintillation counter (Wallac Inc., Atlanta, Ga.). IC50 values are determined from the graphical plot of the substance concentration versus the percentage inhibition.

[10] = molecular target: T8, PDE9A; details: concentrations of up to 100 μM; cited from earlier work
[11] = molecular target: T9, Murine PDE9A (Mus musculus, UniProt O70628); details: concentrations below 200 μM; cited from earlier work
T9 sequence (O70628 1-534): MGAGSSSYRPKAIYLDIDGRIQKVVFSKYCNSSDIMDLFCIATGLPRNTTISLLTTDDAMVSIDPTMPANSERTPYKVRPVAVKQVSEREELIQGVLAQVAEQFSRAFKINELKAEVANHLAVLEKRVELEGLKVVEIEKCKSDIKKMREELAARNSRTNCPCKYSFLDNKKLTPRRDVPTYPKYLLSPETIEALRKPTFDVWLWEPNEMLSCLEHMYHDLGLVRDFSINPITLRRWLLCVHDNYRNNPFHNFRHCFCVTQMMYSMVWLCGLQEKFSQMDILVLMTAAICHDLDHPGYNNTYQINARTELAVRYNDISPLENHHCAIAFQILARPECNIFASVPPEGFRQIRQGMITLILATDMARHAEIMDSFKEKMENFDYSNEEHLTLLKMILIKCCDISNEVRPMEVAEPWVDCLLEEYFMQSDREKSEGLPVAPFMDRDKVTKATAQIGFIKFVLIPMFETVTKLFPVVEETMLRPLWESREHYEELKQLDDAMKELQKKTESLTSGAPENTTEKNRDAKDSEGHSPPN

T3 sequence (Q9NP56 whole entry): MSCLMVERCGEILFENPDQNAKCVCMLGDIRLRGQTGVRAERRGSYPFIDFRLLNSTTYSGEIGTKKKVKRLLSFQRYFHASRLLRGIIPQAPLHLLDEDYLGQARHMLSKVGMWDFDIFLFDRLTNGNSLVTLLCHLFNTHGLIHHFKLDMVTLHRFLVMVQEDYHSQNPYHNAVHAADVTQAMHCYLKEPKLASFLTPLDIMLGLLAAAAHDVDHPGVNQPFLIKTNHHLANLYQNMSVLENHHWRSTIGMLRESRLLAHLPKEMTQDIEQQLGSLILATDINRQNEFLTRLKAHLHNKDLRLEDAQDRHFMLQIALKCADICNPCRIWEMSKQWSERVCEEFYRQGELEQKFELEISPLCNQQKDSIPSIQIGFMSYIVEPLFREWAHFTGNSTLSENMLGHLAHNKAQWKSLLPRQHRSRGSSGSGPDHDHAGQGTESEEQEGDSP
T4 sequence (Q13370 whole entry): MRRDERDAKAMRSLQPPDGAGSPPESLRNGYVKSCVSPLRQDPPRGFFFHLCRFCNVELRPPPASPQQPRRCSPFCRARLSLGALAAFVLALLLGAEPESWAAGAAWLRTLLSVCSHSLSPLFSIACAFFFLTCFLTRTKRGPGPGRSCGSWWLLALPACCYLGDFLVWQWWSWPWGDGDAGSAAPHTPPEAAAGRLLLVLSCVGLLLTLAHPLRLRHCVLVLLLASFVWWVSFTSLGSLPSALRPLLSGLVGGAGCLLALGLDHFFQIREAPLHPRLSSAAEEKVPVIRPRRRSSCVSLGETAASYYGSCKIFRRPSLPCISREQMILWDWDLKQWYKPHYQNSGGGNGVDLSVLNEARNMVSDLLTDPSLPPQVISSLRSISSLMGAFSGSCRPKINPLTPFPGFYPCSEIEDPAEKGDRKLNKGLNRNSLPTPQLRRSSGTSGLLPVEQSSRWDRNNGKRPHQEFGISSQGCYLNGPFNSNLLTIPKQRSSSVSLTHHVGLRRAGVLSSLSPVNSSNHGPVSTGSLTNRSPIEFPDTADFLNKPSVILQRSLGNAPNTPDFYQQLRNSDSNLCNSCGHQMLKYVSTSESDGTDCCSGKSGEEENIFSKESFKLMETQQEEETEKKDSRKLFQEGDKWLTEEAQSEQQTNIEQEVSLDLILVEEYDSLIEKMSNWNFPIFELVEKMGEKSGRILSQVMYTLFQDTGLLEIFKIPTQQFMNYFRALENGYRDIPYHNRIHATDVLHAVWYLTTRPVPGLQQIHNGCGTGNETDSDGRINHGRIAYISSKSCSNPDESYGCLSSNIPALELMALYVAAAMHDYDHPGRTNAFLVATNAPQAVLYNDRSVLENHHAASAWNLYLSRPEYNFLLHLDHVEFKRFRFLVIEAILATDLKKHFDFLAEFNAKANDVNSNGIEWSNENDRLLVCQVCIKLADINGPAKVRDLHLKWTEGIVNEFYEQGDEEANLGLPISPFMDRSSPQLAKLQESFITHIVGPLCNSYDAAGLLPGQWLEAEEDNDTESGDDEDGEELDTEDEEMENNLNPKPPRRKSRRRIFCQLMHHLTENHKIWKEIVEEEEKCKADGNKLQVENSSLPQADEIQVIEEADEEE
T8 sequence (O76083 whole entry): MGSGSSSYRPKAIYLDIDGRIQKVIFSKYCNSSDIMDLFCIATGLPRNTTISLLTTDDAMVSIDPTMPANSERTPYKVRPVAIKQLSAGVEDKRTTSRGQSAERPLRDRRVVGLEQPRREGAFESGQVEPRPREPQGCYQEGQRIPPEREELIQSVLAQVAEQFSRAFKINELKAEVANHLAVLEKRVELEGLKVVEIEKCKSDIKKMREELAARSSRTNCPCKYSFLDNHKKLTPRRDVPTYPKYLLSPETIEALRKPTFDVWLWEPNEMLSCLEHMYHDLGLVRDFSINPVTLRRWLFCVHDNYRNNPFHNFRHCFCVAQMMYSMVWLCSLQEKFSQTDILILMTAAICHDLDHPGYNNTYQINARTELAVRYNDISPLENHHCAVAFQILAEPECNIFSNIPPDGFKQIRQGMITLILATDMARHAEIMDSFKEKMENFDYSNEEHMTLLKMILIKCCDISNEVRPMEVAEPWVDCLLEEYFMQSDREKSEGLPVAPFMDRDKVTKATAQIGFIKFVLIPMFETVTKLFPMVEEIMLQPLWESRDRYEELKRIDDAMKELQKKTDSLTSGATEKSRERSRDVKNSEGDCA
T5 sequence (O00408 whole entry): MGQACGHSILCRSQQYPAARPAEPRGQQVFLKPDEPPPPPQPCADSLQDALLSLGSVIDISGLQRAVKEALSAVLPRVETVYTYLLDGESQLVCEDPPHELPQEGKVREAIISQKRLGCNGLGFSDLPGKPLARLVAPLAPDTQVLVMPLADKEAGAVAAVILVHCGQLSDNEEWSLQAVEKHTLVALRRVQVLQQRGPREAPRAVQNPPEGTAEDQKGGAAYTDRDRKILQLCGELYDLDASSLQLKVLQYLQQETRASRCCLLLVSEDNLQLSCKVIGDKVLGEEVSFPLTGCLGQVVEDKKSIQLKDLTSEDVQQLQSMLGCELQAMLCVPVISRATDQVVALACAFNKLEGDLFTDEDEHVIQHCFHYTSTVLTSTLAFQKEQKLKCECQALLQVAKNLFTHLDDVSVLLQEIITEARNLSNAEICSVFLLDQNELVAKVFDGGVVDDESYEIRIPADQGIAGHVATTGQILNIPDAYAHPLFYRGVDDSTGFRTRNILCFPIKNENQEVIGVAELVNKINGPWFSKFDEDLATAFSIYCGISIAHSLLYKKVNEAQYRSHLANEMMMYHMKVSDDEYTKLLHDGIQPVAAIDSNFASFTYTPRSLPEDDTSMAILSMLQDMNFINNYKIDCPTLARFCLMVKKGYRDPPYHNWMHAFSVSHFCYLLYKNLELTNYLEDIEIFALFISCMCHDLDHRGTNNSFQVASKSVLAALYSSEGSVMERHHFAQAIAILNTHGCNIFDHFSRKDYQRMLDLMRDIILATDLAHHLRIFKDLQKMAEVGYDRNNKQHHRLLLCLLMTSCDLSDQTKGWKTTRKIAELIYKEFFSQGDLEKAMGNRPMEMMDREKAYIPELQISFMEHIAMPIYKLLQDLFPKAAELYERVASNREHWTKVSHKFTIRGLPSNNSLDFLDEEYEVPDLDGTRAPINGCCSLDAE
T6 sequence (Q9Y233 1-779 isoform Q9Y233-1): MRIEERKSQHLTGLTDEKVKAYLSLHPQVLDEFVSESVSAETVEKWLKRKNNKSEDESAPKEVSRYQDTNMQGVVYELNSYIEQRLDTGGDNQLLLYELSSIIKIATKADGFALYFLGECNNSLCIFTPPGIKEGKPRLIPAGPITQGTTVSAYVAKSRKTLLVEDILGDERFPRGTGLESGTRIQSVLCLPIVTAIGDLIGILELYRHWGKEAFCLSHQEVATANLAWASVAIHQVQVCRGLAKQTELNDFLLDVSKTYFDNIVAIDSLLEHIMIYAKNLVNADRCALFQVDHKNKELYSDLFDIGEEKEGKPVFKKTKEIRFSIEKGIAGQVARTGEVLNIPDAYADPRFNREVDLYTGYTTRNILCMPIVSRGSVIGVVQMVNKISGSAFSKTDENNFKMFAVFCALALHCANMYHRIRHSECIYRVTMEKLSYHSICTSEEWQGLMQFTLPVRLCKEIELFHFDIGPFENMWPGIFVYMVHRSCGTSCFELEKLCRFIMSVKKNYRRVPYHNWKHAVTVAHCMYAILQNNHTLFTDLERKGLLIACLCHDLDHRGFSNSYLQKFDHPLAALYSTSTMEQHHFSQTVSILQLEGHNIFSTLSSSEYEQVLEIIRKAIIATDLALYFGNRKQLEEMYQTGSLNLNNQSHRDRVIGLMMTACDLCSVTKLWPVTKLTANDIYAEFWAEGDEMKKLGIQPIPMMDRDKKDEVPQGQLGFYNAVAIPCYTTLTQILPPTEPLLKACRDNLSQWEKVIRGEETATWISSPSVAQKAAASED
PDE4B, sequence (Q07343 212-736 limits assumed): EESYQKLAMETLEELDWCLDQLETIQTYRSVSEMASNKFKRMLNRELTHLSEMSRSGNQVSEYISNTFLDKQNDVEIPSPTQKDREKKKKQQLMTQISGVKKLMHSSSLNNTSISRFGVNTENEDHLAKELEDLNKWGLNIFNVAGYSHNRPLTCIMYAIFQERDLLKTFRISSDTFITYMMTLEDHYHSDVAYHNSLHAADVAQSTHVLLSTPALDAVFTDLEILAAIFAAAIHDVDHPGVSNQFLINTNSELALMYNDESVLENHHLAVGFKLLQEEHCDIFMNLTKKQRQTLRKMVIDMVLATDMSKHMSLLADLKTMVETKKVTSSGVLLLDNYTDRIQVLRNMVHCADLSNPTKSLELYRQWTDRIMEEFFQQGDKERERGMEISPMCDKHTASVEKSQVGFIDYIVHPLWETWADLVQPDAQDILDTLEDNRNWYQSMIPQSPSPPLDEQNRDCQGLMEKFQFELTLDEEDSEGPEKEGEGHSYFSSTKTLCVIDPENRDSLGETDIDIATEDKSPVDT
T2 sequence (Q9HCR9 445-933 limits assumed): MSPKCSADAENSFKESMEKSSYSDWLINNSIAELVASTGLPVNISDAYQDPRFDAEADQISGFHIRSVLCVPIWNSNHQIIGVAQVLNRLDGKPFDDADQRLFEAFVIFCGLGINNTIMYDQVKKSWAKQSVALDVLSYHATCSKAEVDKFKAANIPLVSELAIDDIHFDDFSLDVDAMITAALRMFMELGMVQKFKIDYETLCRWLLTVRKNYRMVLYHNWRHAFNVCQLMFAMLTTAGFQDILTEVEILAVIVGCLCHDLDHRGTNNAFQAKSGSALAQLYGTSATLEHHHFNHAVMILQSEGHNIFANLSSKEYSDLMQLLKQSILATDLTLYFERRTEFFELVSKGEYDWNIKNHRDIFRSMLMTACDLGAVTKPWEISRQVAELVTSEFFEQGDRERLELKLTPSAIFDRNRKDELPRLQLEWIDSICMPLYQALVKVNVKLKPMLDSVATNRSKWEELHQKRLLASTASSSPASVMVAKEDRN

| SMILES | IC50 [1] [µM] | IC50 [2] [µM] | IC50 [3] [µM] | IC50 [4] [µM] | IC50 [5] [µM] | IC50 [6] [µM] | IC50 [7] [µM] | IC50 [8] [µM] | IC50 [9] [µM] | inhibition on the isolated enzyme (human PDE9A) [10] | inhibition of murine PDE9A [11] |
| --- | --- | --- | --- | --- | --- | --- | --- | --- | --- | --- | --- |
| COc1ccc(-c2ccccc2Cc2nc(N3CCC(CCO)CC3)c(C#N)c(=O)[nH]2)cn1 [Example 38, 4-[4-(2-Hydroxyethyl)piperidin-1-yl]-2-[2-(6-methoxypyridin-3-yl)benzyl]-6-oxo-1,6-dihydropyrimidine-5-carbonitrile] | > 4 | > 4 | 2.2 | > 4 | > 4 | > 4 | > 4 |  |  |  |  |
| COc1ccc(-c2ccccc2Cc2nc(N3CCC[C@H]3CO)c(C#N)c(=O)[nH]2)cn1 [Example 112] | > 4 | > 4 | > 4 | > 4 | > 4 | > 4 | > 4 | > 4 | 0.005 |  |  |
| COc1ccc(-c2ccccc2Cc2nc(N3CCCC3)c(C#N)c(=O)[nH]2)cn1 [Example 113] | > 4 | 1.5 | > 4 | > 4 | > 4 | > 4 | > 4 | > 4 | 0.015 |  |  |
| CC(C)Cn1c(=O)n(C)c(=O)c2[nH]cnc21 [IBMX] |  |  |  |  |  |  |  |  |  | no inhibition | not inhibited |
| CC(=O)Nc1ccc(-c2c[nH]c(=O)cn2)cc1 [SKF94120] |  |  |  |  |  |  |  |  |  | no inhibition |  |
| OCCN(CCO)c1nc(N2CCCCC2)c2nc(N(CCO)CCO)nc(N3CCCCC3)c2n1 [dipyridamole] |  |  |  |  |  |  |  |  |  | no inhibition |  |
| COc1ccc(C2CNC(=O)C2)cc1OC1CCCC1 (stereo not shown) [rolipram] |  |  |  |  |  |  |  |  |  | no inhibition |  |
| CCOC(=O)C1=C[C@]2(CC)CCCN3CCc4c(n1c1ccccc41)[C@@H]32 [vinpocetine] |  |  |  |  |  |  |  |  |  | no inhibition |  |
